Measurements taken from patent US8163728B2, “Pyrazoles” (Hoffmann-La Roche Inc., priority 2009, dated 2012).

What follows are compounds tested against T1, GABA A α5 (Homo sapiens, UniProt P18507+P31644) (assay: [3H]flumazenil competition binding, human GABA A α5β3γ2 receptors in HEK293 cell membranes). Details: human receptor α5β3γ2 transiently transfected in HEK293; 0.5 nM [3H]flumazenil; 1 hour at 4° C.; means of two determinations; read-out: hKi GABA A α5.
T1 construct: expressed in transfected cells; host or cells: HEK293 cells, transiently transfected; membranes prepared from cell pellets
Experimental: The affinity of compounds at GABA A receptor subtypes was measured by competition for [3H]flumazenil (85 Ci/mmol; Roche) binding to HEK293 cells expressing rat (stably transfected) or human (transiently transfected) receptors of composition α1β3γ2, α2β3γ2, α3β3γ2 and α5β3γ2.
Cell pellets were suspended in Krebs-tris buffer (4.8 mM KCl, 1.2 mM CaCl2, 1.2 mM MgCl2, 120 mM NaCl, 15 mM Tris; pH 7.5; binding assay buffer), homogenized by polytron for ca. 20 sec on ice and centrifuged for 60 min at 4° C. (50000 g; Sorvall, rotor: SM24=20000 rpm). The cell pellets were re-suspended in Krebs-tris buffer and homogenized by polytron for ca. 15 sec on ice. Protein was measured (Bradford method, Bio-Rad) and aliquots of 1 mL were prepared and stored at −80° C.
Assays were incubated to equilibrium for 1 hour at 4° C. and harvested onto GF/C uni-filters (Packard) by filtration using a Packard harvester and washing with ice-cold wash buffer (50 mM Tris; pH 7.5). After drying, filter-retained radioactivity was detected by liquid scintillation counting. Ki values were calculated using Excel-Fit (Microsoft) and are the means of two determinations.

Row | Ki | SMILES
1 | 41.3 nM | Cc1onc(-c2ccccc2)c1COc1cc(C(=O)N2CCOCC2)[nH]n1 [Example 1, [5-(5-Methyl-3-phenyl-isoxazol-4-ylmethoxy)-2H-pyrazol-3-yl]morpholin-4-yl-methanone]
2 | 32.4 nM | Cc1onc(-c2ccccc2)c1COc1cc(C(=O)NC(C)C)[nH]n1 [Example 2, 5-(5-Methyl-3-phenyl-isoxazol-4-ylmethoxy)-2H-pyrazole-3-carboxylic acid isopropylamide]
3 | 3.1 nM | Cc1onc(-c2ccccc2)c1COc1cc(C(=O)NC2CCOCC2)[nH]n1 [Example 3, 5-(5-Methyl-3-phenyl-isoxazol-4-ylmethoxy)-2H-pyrazole-3-carboxylic acid (tetrahydro-pyran-4-yl)-amide]
4 | 14.6 nM | Cc1onc(-c2ccccc2)c1COc1cc(C(=O)NN(C)C)[nH]n1 [Example 5, 5-(5-Methyl-3-phenyl-isoxazol-4-ylmethoxy)-2H-pyrazole-3-carboxylic acid N′,N′-dimethyl-hydrazide]
5 | 17.5 nM | Cc1onc(-c2ccccc2)c1COc1cc(C(=O)NCCO)[nH]n1 [Example 6, 5-(5-Methyl-3-phenyl-isoxazol-4-ylmethoxy)-2H-pyrazole-3-carboxylic acid (2-hydroxy-ethyl)-amide]
6 | 36.3 nM | Cc1onc(-c2ccccc2)c1COc1cc(C(N)=O)[nH]n1 [Example 7, 5-(5-Methyl-3-phenyl-isoxazol-4-ylmethoxy)-2H-pyrazole-3-carboxylic acid amide]
7 | 1.8 nM | Cc1onc(-c2ccc(F)cc2)c1COc1cc(C(=O)NN2CCOCC2)[nH]n1 [Example 8, 5-[3-(4-Fluoro-phenyl)-5-methyl-isoxazol-4-ylmethoxy]-2H-pyrazole-3-carboxylic acid morpholin-4-ylamide]
8 | 3.8 nM | Cc1onc(-c2ccc(F)cc2)c1COc1cc(C(=O)NN2CCCC2)[nH]n1 [Example 10, 5-[3-(4-Fluoro-phenyl)-5-methyl-isoxazol-4-ylmethoxy]-2H-pyrazole-3-carboxylic acid pyrrolidin-1-ylamide]
9 | 4.9 nM | Cc1onc(-c2ccc(F)cc2)c1COc1cc(C(=O)NN(C)C)[nH]n1 [Example 11, 5-[3-(4-Fluoro-phenyl)-5-methyl-isoxazol-4-ylmethoxy]-2H-pyrazole-3-carboxylic acid N′,N′-dimethyl-hydrazide]
10 | 2.3 nM | Cc1onc(-c2ccc(F)cc2)c1COc1cc(C(=O)NC(C)C)[nH]n1 [Example 12, 5-[3-(4-Fluoro-phenyl)-5-methyl-isoxazol-4-ylmethoxy]-2H-pyrazole-3-carboxylic acid isopropylamide]
11 | 0.5 nM | Cc1onc(-c2ccc(F)cc2)c1COc1cc(C(=O)NC2CCOCC2)[nH]n1 [Example 13, 5-[3-(4-Fluoro-phenyl)-5-methyl-isoxazol-4-ylmethoxy]-2H-pyrazole-3-carboxylic acid (tetrahydro-pyran-4-yl)-amide]
12 | 9.3 nM | Cc1onc(-c2ccccn2)c1COc1cc(C(=O)NC(C)C)n[nH]1 [Example 14, 5-(5-Methyl-3-pyridin-2-yl-isoxazol-4-ylmethoxy)-1H-pyrazole-3-carboxylic acid isopropylamide]
13 | 2.5 nM | Cc1onc(-c2ccccn2)c1COc1cc(C(=O)NC2CCOCC2)n[nH]1 [Example 15, 5-(5-Methyl-3-pyridin-2-yl-isoxazol-4-ylmethoxy)-1H-pyrazole-3-carboxylic acid (tetrahydropyran-4-yl)-amide]
14 | 11.1 nM | Cc1onc(-c2ccccn2)c1COc1cc(C(=O)N[C@@H](C)CO)n[nH]1 [Example 16, 5-(5-Methyl-3-pyridin-2-yl-isoxazol-4-ylmethoxy)-1H-pyrazole-3-carboxylic acid ((S)-2-hydroxy-1-methyl-ethyl)-amide]
15 | 1.2 nM | Cc1onc(-c2ccc(F)cn2)c1COc1cc(C(=O)NCC(F)(F)F)[nH]n1 [Example 17, 5-[3-(5-Fluoro-pyridin-2-yl)-5-methyl-isoxazol-4-ylmethoxy]-2H-pyrazole-3-carboxylic acid (2,2,2-trifluoro-ethyl)-amide]
16 | 17.8 nM | Cc1onc(-c2ccc(F)cn2)c1COc1cc(C(=O)NC(C)(C)C)[nH]n1 [Example 19, 5-[3-(5-Fluoro-pyridin-2-yl)-5-methyl-isoxazol-4-ylmethoxy]-2H-pyrazole-3-carboxylic acid tert-butylamide]
17 | 4 nM | Cc1onc(-c2ccc(F)cn2)c1COc1cc(C(=O)NCCO)[nH]n1 [Example 20, 5-[3-(5-Fluoro-pyridin-2-yl)-5-methyl-isoxazol-4-ylmethoxy]-2H-pyrazole-3-carboxylic acid (2-hydroxy-ethyl)-amide]
18 | 2.5 nM | Cc1onc(-c2ccc(F)cn2)c1COc1cc(C(=O)NC(C)C)[nH]n1 [Example 21, 5-[3-(5-Fluoro-pyridin-2-yl)-5-methyl-isoxazol-4-ylmethoxy]-2H-pyrazole-3-carboxylic acid isopropylamide]

Row | Ki | SMILES
19 | 6.7 nM | Cc1onc(-c2ccc(F)cn2)c1COc1cc(C(=O)NN(C)C)[nH]n1 [Example 22, 5-[3-(5-Fluoro-pyridin-2-yl)-5-methyl-isoxazol-4-ylmethoxy]-2H-pyrazole-3-carboxylic acid N′,N′-dimethyl-hydrazide]
20 | 1.9 nM | Cc1onc(-c2ccc(F)cn2)c1COc1cc(C(=O)NN2CCOCC2)[nH]n1 [Example 23, 5-[3-(5-Fluoro-pyridin-2-yl)-5-methyl-isoxazol-4-ylmethoxy]-2H-pyrazole-3-carboxylic acid morpholin-4-ylamide]
21 | 3.5 nM | Cc1onc(-c2ccc(F)cn2)c1COc1cc(C(=O)NN2CCCC2)[nH]n1 [Example 24, 5-[3-(5-Fluoro-pyridin-2-yl)-5-methyl-isoxazol-4-ylmethoxy]-2H-pyrazole-3-carboxylic acid pyrrolidin-1-ylamide]
22 | 13.6 nM | O=C(NN1CCOCC1)c1cc(OCc2conc2-c2ccc(F)cn2)n[nH]1 [Example 25, 5-[3-(5-Fluoro-pyridin-2-yl)-isoxazol-4-ylmethoxy]-2H-pyrazole-3-carboxylic acid morpholin-4-ylamide]
23 | 2.3 nM | CCCCc1noc(C)c1COc1cc(C(=O)NC2CCOCC2)[nH]n1 [Example 26, 5-(3-Butyl-5-methyl-isoxazol-4-ylmethoxy)-2H-pyrazole-3-carboxylic acid (tetrahydropyran-4-yl)-amide]
24 | 7.8 nM | CCCCc1noc(C)c1COc1cc(C(=O)N[C@@H](C)CO)[nH]n1 [Example 27, 5-(3-Butyl-5-methyl-isoxazol-4-ylmethoxy)-2H-pyrazole-3-carboxylic acid ((S)-2-hydroxy-1-methyl-ethyl)-amide]
25 | 10.4 nM | CCCCc1noc(C)c1COc1cc(C(=O)NC(CO)CO)[nH]n1 [Example 29, 5-(3-Butyl-5-methyl-isoxazol-4-ylmethoxy)-2H-pyrazole-3-carboxylic acid (2-hydroxy-1-hydroxymethyl-ethyl)-amide]
26 | 6.4 nM | CCCCc1noc(C)c1COc1cc(C(=O)NCC(F)(F)F)[nH]n1 [Example 31, 5-(3-Butyl-5-methyl-isoxazol-4-ylmethoxy)-2H-pyrazole-3-carboxylic acid (2,2,2-trifluoro-ethyl)-amide]
27 | 15.7 nM | CCCCc1noc(C)c1COc1cc(C(=O)NC(C)C)[nH]n1 [Example 32, 5-(3-Butyl-5-methyl-isoxazol-4-ylmethoxy)-2H-pyrazole-3-carboxylic acid isopropylamide]
28 | 20.2 nM | CCCCc1noc(C)c1COc1cc(C(=O)NCCO)[nH]n1 [Example 33, 5-(3-Butyl-5-methyl-isoxazol-4-ylmethoxy)-2H-pyrazole-3-carboxylic acid (2-hydroxyethyl)-amide]
29 | 53.5 nM | CCCCc1noc(C)c1COc1cc(C(=O)N2CCOCC2)[nH]n1 [Example 36, [5-(3-Butyl-5-methyl-isoxazol-4-ylmethoxy)-2H-pyrazol-3-yl]morpholin-4-yl-methanone]
30 | 38.7 nM | CCCCc1noc(C)c1COc1cc(C(=O)NN(C)C)[nH]n1 [Example 38, 5-(3-Butyl-5-methyl-isoxazol-4-ylmethoxy)-2H-pyrazole-3-carboxylic acid N′,N′-dimethylhydrazide]
31 | 5.8 nM | CCCCc1noc(C)c1COc1cc(C(=O)NN2CCOCC2)[nH]n1 [Example 39, 5-(3-Butyl-5-methyl-isoxazol-4-ylmethoxy)-2H-pyrazole-3-carboxylic acid morpholin-4-ylamide]
32 | 21.5 nM | CCCCc1noc(C)c1COc1cc(C(=O)NN2CCCC2)[nH]n1 [Example 40, 5-(3-Butyl-5-methyl-isoxazol-4-ylmethoxy)-2H-pyrazole-3-carboxylic acid pyrrolidin-1-ylamide]
33 | 27.2 nM | CCCCc1noc(C)c1COc1cc(C(=O)NN2CCCCC2)[nH]n1 [Example 41, 5-(3-Butyl-5-methyl-isoxazol-4-ylmethoxy)-2H-pyrazole-3-carboxylic acid piperidin-1-ylamide]
34 | 15.9 nM | Cc1onc(-c2ccccc2)c1COc1cc(C(=O)NCCO)n(C)n1 [Example 42, 2-Methyl-5-(5-methyl-3-phenyl-isoxazol-4-ylmethoxy)-2H-pyrazole-3-carboxylic acid (2-hydroxy-ethyl)-amide]
35 | 3.1 nM | Cc1onc(-c2ccccc2)c1COc1cc(C(=O)NC2CCOCC2)n(C)n1 [Example 44, 2-Methyl-5-(5-methyl-3-phenyl-isoxazol-4-ylmethoxy)-2H-pyrazole-3-carboxylic acid (tetra-hydro-pyran-4-yl)-amide]
